{"source": "patent US20040038824A1", "about": "“Agrochemical composition” (priority 2000, published 2004)", "test_system": "Wheat", "assay": "Greenhouse test of the safener's protective action on wheat against herbicide damage (post-emergence tank mix)", "type": "in vivo", "details": "2- to 3-leaf stage, tank mix with herbicide propynyl (R)-2[4-[(5-chloro-3-fluoro-2-pyridynyl]oxy-phenoxy]propanoate, 20 days post-application", "description": "Wheat seeds are sown in the greenhouse in plastic pots comprising 0.5 l of garden soil."}
{"smiles": "CCCCCC(C)OC(=O)COc1ccc(Cl)c2cccnc12", "note": "(stereo not shown) [safener of the formula I, 1-methylhexyl (5-chloroquinolin-8-yloxy)acetate tetrahydrate]", "values": [{"measurement": "protective action of the safener in comparison with the plants treated with the herbicide only", "value": "very effective"}]}
